Experimental data: article PMC3402552 (Journal of Medicinal Chemistry, 2012)
Values belong to the molecule of their own block, whether it stands above or below them.

Assays:
[1] = system: 5-HT2A F6.51L mutant; settings: cited from earlier work
[2] = system: 5-HT2A W6.48A mutant; settings: cited from earlier work
[3] = system: 5-HT2A S3.36A/C mutant; settings: S3.36A/C mutations; cited from earlier work
[4] = system: 5-HT2A F6.52L mutant; settings: F6.52L mutation; cited from earlier work
[5] = target: 5-HT2B (Homo sapiens, UniProt P41595); test: PDSP radioligand competition binding, 5-HT2B; settings: Figure 9B
5-HT2B, sequence (P41595 whole entry, species assumed): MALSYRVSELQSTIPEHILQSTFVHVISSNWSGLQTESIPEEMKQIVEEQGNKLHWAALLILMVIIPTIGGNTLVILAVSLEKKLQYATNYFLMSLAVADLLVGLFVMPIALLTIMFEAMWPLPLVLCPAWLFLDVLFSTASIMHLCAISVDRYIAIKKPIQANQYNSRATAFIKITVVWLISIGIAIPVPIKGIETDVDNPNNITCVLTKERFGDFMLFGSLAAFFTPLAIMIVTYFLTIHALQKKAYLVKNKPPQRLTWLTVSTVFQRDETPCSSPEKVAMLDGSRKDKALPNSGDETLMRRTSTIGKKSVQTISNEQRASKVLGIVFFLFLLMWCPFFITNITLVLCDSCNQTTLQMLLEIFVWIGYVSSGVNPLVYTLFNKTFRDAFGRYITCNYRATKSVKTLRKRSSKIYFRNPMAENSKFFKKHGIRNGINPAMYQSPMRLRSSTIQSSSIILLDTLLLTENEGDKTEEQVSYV

[6] = target: 5-HT2A (Homo sapiens, UniProt P28223); test: PDSP radioligand competition binding, 5-HT2A; settings: 5-HTR profiling
5-HT2A, sequence (P28223 whole entry, species assumed): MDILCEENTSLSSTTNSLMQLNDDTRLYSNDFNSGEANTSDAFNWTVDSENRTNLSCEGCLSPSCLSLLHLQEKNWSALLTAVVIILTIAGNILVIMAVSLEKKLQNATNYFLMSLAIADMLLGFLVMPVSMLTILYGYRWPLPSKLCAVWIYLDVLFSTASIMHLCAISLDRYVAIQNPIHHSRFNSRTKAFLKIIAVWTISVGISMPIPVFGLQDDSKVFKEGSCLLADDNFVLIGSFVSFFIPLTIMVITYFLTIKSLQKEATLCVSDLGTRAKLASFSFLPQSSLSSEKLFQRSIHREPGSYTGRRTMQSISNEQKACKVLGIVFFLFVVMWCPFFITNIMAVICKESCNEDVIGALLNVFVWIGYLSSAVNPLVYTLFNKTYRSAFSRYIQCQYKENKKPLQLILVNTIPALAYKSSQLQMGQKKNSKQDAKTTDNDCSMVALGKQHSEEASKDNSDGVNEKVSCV

[7] = target: 5-HT1B (Homo sapiens, UniProt P28222); test: PDSP radioligand competition binding, 5-HT1B; settings: 5-HTR profiling
5-HT1B, sequence (P28222 whole entry, species assumed): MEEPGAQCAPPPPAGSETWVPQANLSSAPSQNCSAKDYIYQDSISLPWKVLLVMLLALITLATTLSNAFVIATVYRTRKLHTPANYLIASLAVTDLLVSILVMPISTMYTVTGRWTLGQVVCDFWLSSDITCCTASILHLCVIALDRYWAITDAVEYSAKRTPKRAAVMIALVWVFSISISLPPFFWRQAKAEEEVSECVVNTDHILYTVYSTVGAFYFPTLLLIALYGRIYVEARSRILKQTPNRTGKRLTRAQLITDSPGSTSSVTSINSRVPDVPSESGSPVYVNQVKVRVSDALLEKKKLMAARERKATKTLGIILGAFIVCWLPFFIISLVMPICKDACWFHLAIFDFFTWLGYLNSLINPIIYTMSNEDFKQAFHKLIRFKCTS

[8] = target: 5-HT1E (Homo sapiens, UniProt P28566); test: PDSP radioligand competition binding, 5-HT1E; settings: 5-HTR profiling
5-HT1E, sequence (P28566 whole entry, species assumed): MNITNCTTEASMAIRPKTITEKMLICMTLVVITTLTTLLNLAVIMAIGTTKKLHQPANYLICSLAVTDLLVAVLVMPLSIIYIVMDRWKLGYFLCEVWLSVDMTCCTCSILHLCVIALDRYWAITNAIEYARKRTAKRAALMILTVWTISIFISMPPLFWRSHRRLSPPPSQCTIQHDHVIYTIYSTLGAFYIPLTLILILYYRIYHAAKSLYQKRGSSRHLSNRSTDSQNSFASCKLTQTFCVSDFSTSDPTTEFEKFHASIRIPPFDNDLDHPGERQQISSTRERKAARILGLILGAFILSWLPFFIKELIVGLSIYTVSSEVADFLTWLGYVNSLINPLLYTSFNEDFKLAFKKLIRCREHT

[9] = target: T1, 5-HT3 (Homo sapiens, UniProt P46098); test: PDSP radioligand competition binding, 5-HT3; settings: 5-HTR profiling
T1 sequence (P46098 24-478): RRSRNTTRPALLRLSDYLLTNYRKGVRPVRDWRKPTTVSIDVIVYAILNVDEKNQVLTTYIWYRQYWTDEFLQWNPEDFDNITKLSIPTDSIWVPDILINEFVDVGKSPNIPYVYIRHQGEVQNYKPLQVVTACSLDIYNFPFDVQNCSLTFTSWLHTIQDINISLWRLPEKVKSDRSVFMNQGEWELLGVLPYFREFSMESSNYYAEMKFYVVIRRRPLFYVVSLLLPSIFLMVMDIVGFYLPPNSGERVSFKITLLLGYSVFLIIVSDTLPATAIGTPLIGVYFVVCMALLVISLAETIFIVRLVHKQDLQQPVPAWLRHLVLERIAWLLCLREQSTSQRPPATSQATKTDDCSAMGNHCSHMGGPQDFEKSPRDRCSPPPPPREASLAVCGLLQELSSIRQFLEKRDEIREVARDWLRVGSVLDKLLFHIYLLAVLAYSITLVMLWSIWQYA

[10] = target: T2, 5-HT1A (Homo sapiens, UniProt P08908); settings: 5-HTR profiling
T2 sequence (P08908 1-422): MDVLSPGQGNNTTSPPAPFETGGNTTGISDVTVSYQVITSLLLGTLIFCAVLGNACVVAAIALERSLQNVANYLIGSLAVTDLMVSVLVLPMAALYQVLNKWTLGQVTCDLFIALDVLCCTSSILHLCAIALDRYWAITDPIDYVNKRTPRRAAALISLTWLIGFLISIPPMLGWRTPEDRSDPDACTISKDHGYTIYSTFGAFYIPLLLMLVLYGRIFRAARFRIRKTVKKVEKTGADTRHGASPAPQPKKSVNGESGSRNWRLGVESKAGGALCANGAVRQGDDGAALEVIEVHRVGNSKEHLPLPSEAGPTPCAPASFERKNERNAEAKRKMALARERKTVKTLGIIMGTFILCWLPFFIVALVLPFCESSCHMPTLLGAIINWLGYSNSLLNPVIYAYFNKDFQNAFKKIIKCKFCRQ

[11] = target: 5-HT5a (Homo sapiens, UniProt P47898); settings: 5-HTR profiling
5-HT5a, sequence (P47898 whole entry, species assumed): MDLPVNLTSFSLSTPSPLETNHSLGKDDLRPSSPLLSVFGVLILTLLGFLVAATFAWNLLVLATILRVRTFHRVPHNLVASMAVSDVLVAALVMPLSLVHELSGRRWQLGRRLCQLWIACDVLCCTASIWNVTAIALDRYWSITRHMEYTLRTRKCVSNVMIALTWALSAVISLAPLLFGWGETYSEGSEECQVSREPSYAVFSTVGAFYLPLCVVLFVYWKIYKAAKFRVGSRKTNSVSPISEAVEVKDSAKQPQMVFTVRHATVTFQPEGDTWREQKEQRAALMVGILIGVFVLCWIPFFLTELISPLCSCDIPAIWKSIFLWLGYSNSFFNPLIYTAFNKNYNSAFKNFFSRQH

[12] = target: 5-HT6 (Homo sapiens, UniProt P50406); settings: 5-HTR profiling
5-HT6, sequence (P50406 whole entry, species assumed): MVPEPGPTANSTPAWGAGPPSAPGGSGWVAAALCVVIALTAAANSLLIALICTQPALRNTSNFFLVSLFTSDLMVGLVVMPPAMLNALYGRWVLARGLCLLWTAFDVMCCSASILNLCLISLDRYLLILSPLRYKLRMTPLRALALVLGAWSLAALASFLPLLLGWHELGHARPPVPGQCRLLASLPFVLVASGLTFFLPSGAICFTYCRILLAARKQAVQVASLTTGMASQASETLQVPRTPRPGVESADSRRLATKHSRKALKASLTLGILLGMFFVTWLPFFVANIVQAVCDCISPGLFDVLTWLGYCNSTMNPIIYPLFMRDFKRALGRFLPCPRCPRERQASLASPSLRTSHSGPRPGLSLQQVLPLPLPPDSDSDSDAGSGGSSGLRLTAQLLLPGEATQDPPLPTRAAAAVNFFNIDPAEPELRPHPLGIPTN

[13] = target: 5-HT7 (Homo sapiens, UniProt P34969); settings: 5-HTR profiling
5-HT7, sequence (P34969 whole entry, species assumed): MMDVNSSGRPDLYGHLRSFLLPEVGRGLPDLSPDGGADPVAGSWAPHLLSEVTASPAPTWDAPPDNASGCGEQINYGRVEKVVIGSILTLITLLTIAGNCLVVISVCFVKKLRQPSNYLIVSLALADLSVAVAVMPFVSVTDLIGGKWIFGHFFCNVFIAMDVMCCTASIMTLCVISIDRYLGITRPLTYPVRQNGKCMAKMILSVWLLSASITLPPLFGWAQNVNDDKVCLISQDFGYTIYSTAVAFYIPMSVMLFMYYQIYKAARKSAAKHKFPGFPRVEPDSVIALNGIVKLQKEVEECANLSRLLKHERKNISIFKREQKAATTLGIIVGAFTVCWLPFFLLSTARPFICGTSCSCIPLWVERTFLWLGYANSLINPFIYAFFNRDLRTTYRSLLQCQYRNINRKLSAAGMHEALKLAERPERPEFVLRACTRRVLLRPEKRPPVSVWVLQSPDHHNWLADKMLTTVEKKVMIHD

Compound: O=C(c1ccc(F)cc1)C1CCN(CCn2c(=O)[nH]c3ccccc3c2=O)CC1 [ketanserin]
decrease of binding by mutation [1]: at least 800 fold
decrease of binding by mutation [2]: 7 fold
effect of mutation on binding affinity (in words) [3]: almost no effect
effect of mutation on binding affinity (in words) [4]: almost no effect

Compound: CNC(=O)c1cccc(Oc2ccc(NC(=O)Nc3ccc(Cl)c(C(F)(F)F)c3)cc2)c1 [HN01]
change of binding relative to sorafenib (in words) [5]: slight improvement of binding

binding (in words) [6]: weakly binds
binding (in words) [7]: doesn’t bind
binding (in words) [8]: doesn’t bind
binding (in words) [9]: doesn’t bind
binding (in words) [10]: weakly binds
binding (in words) [11]: weakly binds
binding (in words) [12]: weakly binds
binding (in words) [13]: weakly binds
Compound: CNC(=O)c1cc(Oc2ccc(NC(=O)Nc3ccc(Cl)c(C(F)(F)F)c3)cc2)ccn1 [sorafenib]
